# Measurements: US12655142B2 (Merck Patent GmbH, priority 2019, dated 2026)
# Assays:
# c-Kit(V654A) = target: T1, c-Kit(V654A) (Homo sapiens, UniProt P10721, V654A); test: c-Kit(V654A) assay (33P-ATP filter binding kinase assay); format: biochemical; settings: recombinant human c-Kit aa 544-end V654A, ATP 200 μM
# T1 construct: recombinant human c-Kit, amino acids 544-end containing the V654A mutation; GST (N)
# Summary of the method: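 Radiometric filter-binding read-out: substrate 33P incorporation counted by scintillation after P30 filtermat washes in 75 mM phosphoric acid and methanol. Enzyme: N-GST recombinant human c-Kit aa 544-end carrying V654A.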
# [1] = target: T2, GIST430/654 cell line expressing mutated constitutively active cKIT receptor tyrosine kinase (Δ560-576 deletion and V654A point mutation) (Homo sapiens, UniProt P10721, DEL560-576/V654A); test: Cellular cKIT autophosphorylation (phospho-Y307-cKIT, Luminex bead assay) in GIST430/654 cells; format: cell-based; settings: compounds 45 min, read-out: GIST 430/654 IC50
# T2 construct: endogenous in cells; host or cells: GIST430/654 cells
# T2 sequence (P10721 with tags, fused parts or gaps DEL560-576/V654A): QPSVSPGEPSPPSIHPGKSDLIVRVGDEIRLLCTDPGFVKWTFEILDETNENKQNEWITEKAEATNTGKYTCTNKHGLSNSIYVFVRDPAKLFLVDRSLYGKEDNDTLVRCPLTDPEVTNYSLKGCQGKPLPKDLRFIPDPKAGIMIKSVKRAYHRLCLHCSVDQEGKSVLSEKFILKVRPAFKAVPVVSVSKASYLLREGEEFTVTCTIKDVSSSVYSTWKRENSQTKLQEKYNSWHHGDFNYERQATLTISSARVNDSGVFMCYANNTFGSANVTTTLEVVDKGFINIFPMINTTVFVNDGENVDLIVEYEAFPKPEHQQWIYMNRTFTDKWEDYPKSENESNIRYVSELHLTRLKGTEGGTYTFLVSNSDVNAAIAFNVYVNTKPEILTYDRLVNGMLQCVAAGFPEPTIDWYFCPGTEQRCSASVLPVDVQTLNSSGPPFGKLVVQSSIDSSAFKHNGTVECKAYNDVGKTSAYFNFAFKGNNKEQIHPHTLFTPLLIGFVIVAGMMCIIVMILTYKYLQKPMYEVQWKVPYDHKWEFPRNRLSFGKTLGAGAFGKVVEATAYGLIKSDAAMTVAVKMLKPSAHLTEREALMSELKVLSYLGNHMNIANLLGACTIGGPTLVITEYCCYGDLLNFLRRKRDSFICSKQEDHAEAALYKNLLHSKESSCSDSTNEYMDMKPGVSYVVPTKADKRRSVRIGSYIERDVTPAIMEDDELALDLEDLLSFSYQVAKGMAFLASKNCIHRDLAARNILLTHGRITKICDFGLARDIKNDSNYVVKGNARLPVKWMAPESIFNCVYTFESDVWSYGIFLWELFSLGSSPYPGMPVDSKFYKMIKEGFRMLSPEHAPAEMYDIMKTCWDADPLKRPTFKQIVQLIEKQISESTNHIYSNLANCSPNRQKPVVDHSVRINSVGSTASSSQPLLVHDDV
# Summary of the method: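 GIST430 (Δ560-576) and imatinib-resistant GIST430/654 (plus V654A; grown with 100 nM imatinib) cells were plated in IMDM/15% FCS and treated next day with serially diluted compound for 45 min. Lysates were captured on anti-total-cKIT Luminex beads overnight at 4 °C and probed for phospho-Y307. IC50 was taken from percent of 0.3% DMSO control.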
# [2] = Determination of Efflux-Ratio (ER) in Caco-2 cells; settings: human, Caco-2, pH 7.4
# T1 sequence (P10721 544-976 V654A): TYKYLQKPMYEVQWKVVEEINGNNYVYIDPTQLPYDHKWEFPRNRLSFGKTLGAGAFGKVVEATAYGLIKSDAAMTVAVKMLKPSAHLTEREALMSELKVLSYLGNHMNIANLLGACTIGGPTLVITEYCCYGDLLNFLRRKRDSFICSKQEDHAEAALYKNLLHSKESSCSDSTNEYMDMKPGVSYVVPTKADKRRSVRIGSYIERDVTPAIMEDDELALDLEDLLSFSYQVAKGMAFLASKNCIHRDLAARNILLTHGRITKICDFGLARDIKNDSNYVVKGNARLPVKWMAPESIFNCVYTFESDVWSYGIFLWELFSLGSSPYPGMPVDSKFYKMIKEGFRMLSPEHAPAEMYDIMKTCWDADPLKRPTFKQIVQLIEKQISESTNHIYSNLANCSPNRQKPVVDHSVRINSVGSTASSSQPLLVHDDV
IC50 (c-Kit(V654A)) [nM],IC50 [1] [nM],"efflux ratio at 2 h, 1 μM [2]",SMILES
20,76,< 15,"Cn1cc(-c2ccc(CNc3cc(-c4cnc5cc(OCCCN6CCN(C7COC7)CC6)ccn45)ncn3)cc2)cn1 [A184, [4-(1-methyl-1H-pyrazol-4-yl)-benzyl]-(6-{7-[3-(4-oxetan-3-yl-piperazin-1-yl)-propoxy]-imidazo[1,2-a]pyridin-3-yl}-pyrimidin-4-yl)-amine]"
11,46,< 15,"Cn1cc(-c2ccc(CNc3cc(-c4cnc5cc(OCCN6CCN(C7COC7)CC6)ccn45)ncn3)cc2)cn1 [A65, [4-(1-methyl-1H-pyrazol-4-yl)-benzyl]-(6-{7-[2-(4-oxetan-3-yl-piperazin-1-yl)-ethoxy]-imidazo[1,2-a]pyridin-3-yl}-pyrimidin-4-yl)-amine]"
27,190,< 15,"Cn1cc(-c2ccc(CNc3cc(-c4cnc5cc(OCCN6CCOCC(F)(F)C6)ccn45)ncn3)cc2)cn1 [A200, (6-{7-[2-(6,6-difluoro-[1,4]oxazepan-4-yl)-ethoxy]-imidazo[1,2-a]pyridin-3-yl}-pyrimidin-4-yl)-[4-(1-methyl-1H-pyrazol-4-yl)-benzyl]-amine]"
9.4,86,15 to 50,"Cn1cc(-c2ccc(CNc3cc(-c4cnc5cc(OCCN6CC7(COC7)C6)ccn45)ncn3)cc2)cn1 [A114, [4-(1-methyl-1H-pyrazol-4-yl)-benzyl]-(6-{7-[2-(2-oxa-6-aza-spiro[3.3]hept-6-yl)-ethoxy]-imidazo[1,2-a]pyridin-3-yl}-pyrimidin-4-yl)-amine]"
13,99,< 15,"Cn1cc(-c2ccc(CNc3cc(-c4cnc5cc(OCCN6CCN7CCOCC7C6)ccn45)ncn3)cc2)cn1 (stereo not drawn) [A201, (6-{7-[2-(hexahydro-pyrazino[2,1-c][1,4]oxazin-8-yl)-ethoxy]-imidazo[1,2-a]pyridin-3-yl}-pyrimidin-4-yl)-[4-(1-methyl-1H-pyrazol-4-yl)-benzyl]-amine]"
6.7,40,< 15,"Cn1cc(-c2ccc(CNc3cc(-c4cnc5cc(OCCCN6CCN(C7CC7)CC6)ccn45)ncn3)cc2)cn1 [A243, (6-{7-[3-(4-cyclopropyl-piperazin-1-yl)-propoxy]-imidazo[1,2-a]pyridin-3-yl}-pyrimidin-4-yl)-[4-(1-methyl-1H-pyrazol-4-yl)-benzyl]-amine]"
15,100,< 15,"Cn1cc(-c2ccc(CNc3cc(-c4cnc5cc(OCCn6cccn6)ccn45)ncn3)cc2)cn1 [A255, N-{[4-(1-methyl-1H-pyrazol-4-yl)phenyl]methyl}-6-{7-[2-(1H-pyrazol-1-yl)ethoxy]imidazo[1,2-a]pyridin-3-yl}pyrimidin-4-amine]"
4.8,49,< 15,"Cn1cc(-c2ccc(CNc3cc(-c4cnc5cc(OCCCN6CCOCC6)ccn45)ncn3)cc2)cn1 [A74, [4-(1-methyl-1H-pyrazol-4-yl)-benzyl]-{6-[7-(3-morpholin-4-yl-propoxy)-imidazo[1,2-a]pyridin-3-yl]-pyrimidin-4-yl}-amine]"
8.6,76,< 15,"Cn1cc(-c2ccc(CNc3cc(-c4cnc5cc(OCC(C)(C)CN6CCCC6)ccn45)ncn3)cc2)cn1 [A91, {6-[7-(2,2-dimethyl-3-pyrrolidin-1-yl-propoxy)-imidazo[1,2-a]pyridin-3-yl]-pyrimidin-4-yl}-[4-(1-methyl-1H-pyrazol-4-yl)-benzyl]-amine]"
11,140,< 15,"COC1(C)CCN(CCOc2ccn3c(-c4cc(NCc5ccc(-c6cnn(C)c6)cc5)ncn4)cnc3c2)CC1 [A220, (6-{7-[2-(4-methoxy-4-methyl-piperidin-1-yl)-ethoxy]-imidazo[1,2-a]pyridin-3-yl}-pyrimidin-4-yl)-[4-(1-methyl-1H-pyrazol-4-yl)-benzyl]-amine]"
11,26,< 15,"Cn1cc(-c2ccc(CNc3cc(-c4cnc5cc(OCCN6CC(F)C6)ccn45)ncn3)cc2)cn1 [A140, 6-{7-[2-(3-fluoroazetidin-1-yl)ethoxy]imidazo[1,2-a]pyridin-3-yl}-N-{[4-(1-methyl-1H-pyrazol-4-yl)phenyl]methyl}pyrimidin-4-amine]"
6.5,34,< 15,"CN1CCN(CCOc2ccn3c(-c4cc(NCc5ccc(-c6cnn(C)c6)cc5)ncn4)cnc3c2)CC1 [A61, (6-{7-[2-(4-methyl-piperazin-1-yl)-ethoxy]-imidazo[1,2-a]pyridin-3-yl}-pyrimidin-4-yl)-[4-(1-methyl-1H-pyrazol-4-yl)-benzyl]-amine]"
14,40,< 15,"Cn1cc(-c2ccc(CNc3cc(-c4cnc5cc(OCCN6CCC(F)(F)C6)ccn45)ncn3)cc2)cn1 [A77, 6-{7-[2-(3,3-difluoropyrrolidin-1-yl)ethoxy]imidazo[1,2-a]pyridin-3-yl}-N-{[4-(1-methyl-1H-pyrazol-4-yl)phenyl]methyl}pyrimidin-4-amine]"

# More lines, now with the values behind:
SMILES,IC50 (c-Kit(V654A)) [nM],IC50 [1] [nM],"efflux ratio at 2 h, 1 μM [2]"
"COCCn1ncc(-c2ccc(CNc3cc(-c4cnc5cc(OC)ccn45)ncn3)cc2)n1 [A46, N-({4-[2-(2-methoxyethyl)-2H-1,2,3-triazol-4-yl]phenyl}methyl)-6-{7-methoxyimidazo[1,2-a]pyridin-3-yl}pyrimidin-4-amine]",6.4,95,< 15
"COc1ccn2c(-c3cc(NCc4ccc(-c5cnn(C)n5)cc4)ncn3)cnc2c1 [A32, [6-(7-methoxy-imidazo[1,2-a]pyridin-3-yl)-pyrimidin-4-yl]-[4-(2-methyl-2H-[1,2,3]triazol-4-yl)-benzyl]-amine]",4.4,78,< 15
"CN1CCN(CCOc2ccn3c(-c4cc(NCc5ccc(-n6ccnn6)cc5)ncn4)cnc3c2)CC1 [A67, (6-{7-[2-(4-methyl-piperazin-1-yl)-ethoxy]-imidazo[1,2-a]pyridin-3-yl}-pyrimidin-4-yl)-(4-[1,2,3]triazol-1-yl-benzyl)-amine]",4.8,65,> 50
"COc1ccn2c(-c3cc(NCc4ccc(-c5cnn(C)c5)s4)ncn3)cnc2c1 [A36, 6-{7-methoxyimidazo[1,2-a]pyridin-3-yl}-N-{[5-(1-methyl-1H-pyrazol-4-yl)thiophen-2-yl]methyl}pyrimidin-4-amine]",4.2,140,< 15
"Cn1ncc(-c2ccc(CNc3cc(-c4cnc5cc(N6CCC(CCO)C6)ccn45)ncn3)cc2)n1 (stereo not drawn) [A179, 2-[1-(3-{6-[4-(2-methyl-2H-[1,2,3]triazol-4-yl)-benzylamino]-pyrimidin-4-yl}-imidazo[1,2-a]pyridin-7-yl)-pyrrolidin-3-yl]-ethanol]",3.1,24,> 50
"Cn1cc(-c2ccc(CNc3cc(-c4cnc5cc(OCCOCCO)ccn45)ncn3)cc2)cn1 [A234, 2-[2-(3-{6-[4-(1-methyl-1H-pyrazol-4-yl)-benzylamino]-pyrimidin-4-yl}-imidazo[1,2-a]pyridin-7-yloxy)-ethoxy]-ethanol]",8.5,70,< 15
"COc1ccn2c(-c3cc(NCc4ccc(-c5noc(C)n5)cc4)ncn3)cnc2c1 [A26, 6-{7-methoxyimidazo[1,2-a]pyridin-3-yl}-N-{[4-(5-methyl-1,2,4-oxadiazol-3-yl)phenyl]methyl}pyrimidin-4-amine]",8.6,130,< 15
"COCCOc1ccn2c(-c3cc(NCc4ccc(-c5cnn(C)n5)cc4)ncn3)cnc2c1 [A71, {6-[7-(2-methoxy-ethoxy)-imidazo[1,2-a]pyridin-3-yl]-pyrimidin-4-yl}-[4-(2-methyl-2H-[1,2,3]triazol-4-yl)-benzyl]-amine]",4.6,45,< 15
"Cc1nc(-c2ccc(CNc3cc(-c4cnc5cc(OCCO)ccn45)ncn3)cc2)co1 [A236, 2-(3-{6-[4-(2-methyl-oxazol-4-yl)-benzylamino]-pyrimidin-4-yl}-imidazo[1,2-a]pyridin-7-yloxy)-ethanol]",1.5,74,< 15
"COc1ccn2c(-c3cc(NCc4ccc(-c5cocn5)cc4)ncn3)cnc2c1 [A51, [6-(7-methoxy-imidazo[1,2-a]pyridin-3-yl)-pyrimidin-4-yl]-(4-oxazol-4-yl-benzyl)-amine]",1.6,53,< 15
"Cn1cc(-c2ccc(CNc3cc(-c4cnc5cc(OCCN6CCO[C@@H]7COCC[C@@H]76)ccn45)ncn3)cc2)cn1 [A211, (6-{7-[(4aS,8aS)-2-(hexahydro-pyrano[3,4-b][1,4]oxazin-1-yl)-ethoxy]-imidazo[1,2-a]pyridin-3-yl}-pyrimidin-4-yl)-[4-(1-methyl-1H-pyrazol-4-yl)-benzyl]-amine]",10,85,< 15
